Like-named read-outs stand apart in the source and are kept apart here.

The subject of one assay is NIH3T3 cells. As to the kind of experiment: Cytotoxicity by MTT method, NIH3T3 cells.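 Further: cells grown in 96-well plates with compound for 72 h, then given MTT for a further 4 h at 37 °C under 5% CO2.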 The following applies: read-out: NIH3T3 cells MTT assay (IC50/nM). Type of assay: cell-based.
The target in a further assay is EGFR WT kinase (Homo sapiens (Human), UniProt P00533). As to the kind of experiment: Wild type EGFR kinase inhibition test (z-lyte). Type of assay: biochemical. The following applies: 10 μM ATP.
Assay [1] has as its system H1975 cells. As to the kind of experiment: ELISA screening EGFR T790M inhibitor for cell activity, H1975 cells. Type of assay: cell-based. The following applies: ELISA; for Selective inhibitory activities of target on cellular level [IC50 (A431 cells)/IC50 (H1975 cells)]: ratio of IC50 values; for IC50: compound 1 h, read-out: H1975 cells (IC50/nM). In general terms: An ELISA detects its analyte on a solid surface through an enzyme-linked reagent.
Experimental: (§1) The reagents, preparation methods of the solution, as well as the procedures of cell treatments and preparation of lysate, and the test steps of ELISA in the following method were conducted according to the instructions of R&D DYC3570, R&D DYC1095E and R&D DYC1095BE.
(§2) Cell lysates: cell lysis buffer+10 μg/ml Aprotinin (Sigma), 10 μg/ml Leupeptin (Sigma). All reagents were prepared when using.
(2) The test compounds were diluted according to the method in MTT assay, and 10 μl of diluted compound or DMSO was added to the corresponding plate well, and incubated at 37° C. with 5% CO2 for 1 h. The final concentration of DMSO was 0.5%. Cell culture system merely treated with DMSO was used as cell control.
(3) 100 μl cell lysate was added after aspirating the medium, sealed and placed in a refrigerator at −80° C. overnight. Cell lysis buffer used as blank control.
The assay was operated according to the instructions of R&D DYC1095E or R&D DYC1095BE.
(§3) (5) 40 μl of cell lysis buffer and 60 μl of cell lysates were added, and incubated at 25° C. for 2 h under shaking;
(7) Detection antibody was diluted according to a predetermined ratio as stipulated in kit instructions by using IC diluent, and 100 μl of the diluted Detection Antibody was added to each well, and incubated at 25° C. for 1 h under shaking in darkness;
(9) reagent A and reagent B of TMB substrate (R & D DY999) were mixed with 1:1, and 100 μl of substrate was added to each well, and incubated at 25° C. for 20 minutes under shaking in darkness;
(11) The OD450 values and OD570 values of the cell control, blank control and compound treatment were measured respectively by using microplate reader (Thermo Multiskan K3), and the corresponding OD570 values were subtracted from OD450 values of the same wells to get the ODcell, ODblank and ODcompound treatment respectively.
2.3 Data Analysis Inhibition ratio (%)=100%×(ODcell−ODcompound treatment)(ODcell−ODblank)

Another assay concerns A431 cells. As to the kind of experiment: ELISA cell activity, EGF-stimulated A431 cells.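 Further: Serum-starved A431 cells pretreated with compound for 1 h, then stimulated with EGF for 45 min, lysates read by ELISA (OD450 minus OD570), EGF-only wells as control.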 The assay is classed as cell-based. The following applies: ELISA, compound 1 h then EGF 45 minutes, read-out: A431 cells (IC50/nM).
The test system of assay [2] is H1975 cells. The experiment in a line: Cytostatic activity by MTT method, H1975 cells. The assay is classed as cell-based. The following applies: read-out: H1975 cells (IC50/nM).
Where [3] appears, read: Mus musculus, NIH3T3, cytotoxicity, MTT, 72 h.

Sequence of EGFR WT kinase (P00533 25-1210): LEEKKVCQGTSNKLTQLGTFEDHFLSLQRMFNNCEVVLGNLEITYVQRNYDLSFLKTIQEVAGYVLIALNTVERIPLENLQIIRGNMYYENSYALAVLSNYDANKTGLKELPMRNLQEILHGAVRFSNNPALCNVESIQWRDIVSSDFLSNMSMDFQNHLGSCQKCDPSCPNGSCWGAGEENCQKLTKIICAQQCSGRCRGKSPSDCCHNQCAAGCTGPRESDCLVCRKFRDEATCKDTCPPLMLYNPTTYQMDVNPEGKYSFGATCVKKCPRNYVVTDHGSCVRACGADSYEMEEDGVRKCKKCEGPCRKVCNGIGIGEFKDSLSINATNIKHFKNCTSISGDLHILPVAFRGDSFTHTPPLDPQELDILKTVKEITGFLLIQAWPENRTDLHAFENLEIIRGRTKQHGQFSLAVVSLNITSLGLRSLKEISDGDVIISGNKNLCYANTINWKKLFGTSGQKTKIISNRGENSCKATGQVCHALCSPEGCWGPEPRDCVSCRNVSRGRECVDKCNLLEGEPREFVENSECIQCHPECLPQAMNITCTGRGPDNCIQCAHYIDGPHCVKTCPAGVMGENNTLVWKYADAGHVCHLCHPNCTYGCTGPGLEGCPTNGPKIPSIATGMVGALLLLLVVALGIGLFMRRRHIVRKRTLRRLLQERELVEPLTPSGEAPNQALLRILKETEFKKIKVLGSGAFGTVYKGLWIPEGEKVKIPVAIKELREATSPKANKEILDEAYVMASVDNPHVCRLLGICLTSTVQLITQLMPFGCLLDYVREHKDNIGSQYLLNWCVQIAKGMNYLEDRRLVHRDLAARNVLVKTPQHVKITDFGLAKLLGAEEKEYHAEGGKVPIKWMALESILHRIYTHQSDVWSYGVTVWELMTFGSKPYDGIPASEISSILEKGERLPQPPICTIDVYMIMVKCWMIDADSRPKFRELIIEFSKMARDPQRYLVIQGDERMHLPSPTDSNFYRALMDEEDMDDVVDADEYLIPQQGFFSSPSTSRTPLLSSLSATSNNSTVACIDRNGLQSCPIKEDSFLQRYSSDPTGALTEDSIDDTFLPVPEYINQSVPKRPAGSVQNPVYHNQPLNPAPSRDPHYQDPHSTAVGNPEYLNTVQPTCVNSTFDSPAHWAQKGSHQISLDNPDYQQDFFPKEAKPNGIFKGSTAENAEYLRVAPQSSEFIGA
Experimental for A431 cells: as §1, §2
(2) The medium of A431 cells was changed to 90 ul of DMEM FBS free medium, and incubated overnight.
(3) The test compounds were diluted according to the method in MTT assay, 10 μl of diluted compound or DMSO was added to the corresponding plate well, and incubated at 37° C. with 5% CO2 for 1 h. The final concentration of DMSO was 0.5%. 10 μl of 2 μg/L EGF was then added to each well except the cell control well, 10 μl of FBS free DMEM was added to the well, and incubated for 45 minutes; the EGF-free and compound treatment-free cells were used as cell control, and the compound treatment-free but only EGF-treated cells were used as EGF control.
(4) 100 μl cell lysate was added after aspirating the medium, sealed and placed in refrigerator at −80° C. overnight.
The assay was operated according to the instructions of R&D DYC3570E.
as §3
(7) Detection antibody was diluted according to a predetermined ratio of kit instruction by using IC dilution, and 100 μl of the diluted Detection Antibody was added to each well, and incubated at 25° C. for 1 h under shaking in darkness;
(9) reagent A and reagent B of TMB substrate (R & D DY999) were mixed at 1:1, 100 μl of substrate was added to each well, and incubated at 25° C. for 20 minutes under shaking in darkness;
(11) The OD450 values and OD570 values of the cell control, blank control and compound treatment were measured respectively by using microplate reader (Thermo Multiskan K3), and the corresponding OD570 values were subtracted from OD450 values of the same wells to get the ODEGF, ODcompound and ODcell respectively.
Experimental for NIH3T3 cells: After rinsed for one time, 1.5 ml trypsin/EDTA was added to digest the adherent cells until the cells detached, and then 3.5 ml of medium was added to terminate the trypsinization. The digested cell suspension was transferred to a 15 ml falcon tube, and spun at 1300 rpm for 3 min, the supernatant was discarded, and cells were suspended in fresh medium.
The cells were added into the incubator after addition of the test compound, and incubated for 72 h, 10 μl of 5 mg/ml MTT (Sigma, M5655) solution was added to each well of the plate, and incubated the 96-well plates at 37° C. 5% CO2 for 4 h in a incubator.
The plates were spun at 2000 rpm for 5 min.

Turning to `C=CC(=O)Nc1cc(Nc2ncc(OC)c(-c3cnc4c(cnn4C)c3)n2)c(OC)cc1N1CCC(N(C)C)CC1` [Compound Z-38], the IC50 with NIH3T3 cells (cytotoxicity, MTT, 72 h) was more than 10000 nM; against EGFR WT kinase, 35 nM.
Regarding `C=CC(=O)Nc1cc(Nc2ncc(OC)c(-c3cnc4c(ccn4C)c3)n2)c(OC)cc1N(C)CCN(C)C` [Compound Z-21, N-(2-((2-(dimethylamino)ethyl)(methyl)amino)-4-methoxy-5-((5-methoxy-4-(1-methyl-1H-pyrrolo[2,3-b]pyridin-5-yl)pyrimidin-2-yl)amino)phenyl)acrylamide], the “Selective inhibitory activities of target on cellular level [IC50 (A431 cells)/IC50 (H1975 cells)]” value (“Selective inhibitory activities” below) with H1975 cells [1] came to 10.3. Further, the IC50 in the assay with H1975 cells [1] (Homo sapiens, NCI-H1975) amounted to 11 nM; at EGFR WT kinase, 9 nM; in the assay on A431 cells (Homo sapiens, A-431), 113 nM.
`C=CC(=O)Nc1cc(Nc2nccc(-c3cnc4c(cnn4C)c3)n2)c(OC)cc1N1CCN(C)CC1` [Compound Z-5, N-(4-methoxy-5-(4-(1-methyl-1H-pyrazolo[3,4-b]pyridin-5-yl)pyrimidin-2-ylamino)-2-(4-methylpiperazin-1-yl)phenyl)acrylamide] came in with an IC50 against EGFR WT kinase of 105 nM.
Take `C=CC(=O)Nc1cc(Nc2ncc(F)c(-c3cnc4c(ccn4C)c3)n2)c(OC)cc1N(C)CCN(C)C` [Compound Z-20, N-(2-((2-(dimethylamino)ethyl)(methyl)amino)-5-((5-fluoro-4-(1-methyl-1H-pyrrolo[2,3-b]pyridin-5-yl)pyrimidin-2-yl)amino)-4-methoxyphenyl)acrylamide]: the “Selective inhibitory activities” value in the assay on H1975 cells [1] was determined as 7.6. Besides, the IC50 in the assay with H1975 cells [1] (Homo sapiens, NCI-H1975) is 22 nM; at EGFR WT kinase, 4 nM; in the assay with A431 cells (Homo sapiens, A-431), 167 nM.
As to `C=CC(=O)Nc1cc(Nc2ncc(F)c(-c3cnn(C)c3)n2)c(OC)cc1N(C)CCN(C)C` [Compound Z-93, N-(2-((2-(dimethylamino)ethyl)(methyl)amino)-5-(5-fluoro-4-(1-methyl-1H-pyrazol-4-yl)pyrimidin-2-ylamino)-4-methoxyphenyl)acrylamide], in the assay on NIH3T3 cells (setting [3]), the IC50 was more than 10000 nM.
Take `C=CC(=O)Nc1cc(Nc2ncc(Cl)c(-c3cnc4c(c3)c(Cl)cn4C)n2)c(OC)cc1N(C)CCN(C)C` [Compound Z-121]: the IC50 amounted to 8530 nM in the assay on NIH3T3 cells (cytotoxicity, MTT, 72 h) and 14 nM at EGFR WT kinase.
For `C=CC(=O)Nc1cc(Nc2nccc(-c3cnn(C)c3)n2)c(OC)cc1N1CCC(N(C)C)CC1` [Compound Z-17, N-(2-(4-(dimethylamino)piperidin-1-yl)-4-methoxy-5-((4-(1-methyl-1H-pyrazol-4-yl)pyrimidin-2-yl)amino)phenyl)acrylamide], the IC50 in the assay with H1975 cells [1] (Homo sapiens, NCI-H1975) was 77 nM; in the assay on A431 cells (Homo sapiens, A-431) it was 3080 nM.
For the molecule `C=CC(=O)Nc1cc(Nc2ncc(C(=O)OC)c(-c3cnc4c(ccn4C)c3)n2)c(OC)cc1N(C)CCN(C)C` [Compound Z-32], the IC50 in the assay with NIH3T3 cells (cytotoxicity, MTT, 72 h) was more than 10000 nM; on EGFR WT kinase, 4 nM.
As to `C=CC(=O)Nc1cc(Nc2ncc(Cl)c(-c3cnc4c(ccn4C)c3)n2)c(OC)cc1N1CCN(C)CC1` [Compound Z-3, N-(5-(5-chloro-4-(1-methyl-1H-pyrrolo[2,3-b]pyridin-5-yl)pyrimidin-2-amino)-4-methoxy-2-(4-methylpiperazin-1-yl)phenyl)acrylamide], the IC50 in the assay on NIH3T3 cells (setting [3]) turned out to be 8160 nM.
Take `C=CC(=O)Nc1cc(Nc2ncc(Cl)c(-c3ccc4c(ccn4C)c3)n2)c(OC)cc1N(C)CCN(C)C` [Compound Z-88]: the IC50 in the assay on H1975 cells [1] amounted to 18 nM; against EGFR WT kinase, 11 nM; in the assay with A431 cells, 449 nM. For the same molecule, in the assay with H1975 cells [1], the “Selective inhibitory activities” value worked out at 24.9.
Take `C=CC(=O)Nc1cc(Nc2ncc(Cl)c(-c3cnc4c(cnn4C)c3)n2)c(OC)cc1N1CCC(N(C)C)CC1` [Compound Z-40]: the results for the IC50 with H1975 cells [1], against EGFR WT kinase and with A431 cells were 70 nM, 233 nM and 2140 nM, respectively. For the same molecule, the “Selective inhibitory activities” value with H1975 cells [1] came to 30.5.
For the molecule `C=CC(=O)Nc1cc(Nc2ncc(Cl)c(-c3cnc4c(ccn4C)c3)n2)c(OC)cc1NCCCN(C)C` [Compound Z-114], the IC50 came to 8280 nM in the assay with NIH3T3 cells (cytotoxicity, MTT, 72 h) and 116 nM against EGFR WT kinase.
For `C=CC(=O)Nc1cc(Nc2ncc(F)c(-c3cnc4c(ccn4C)c3)n2)c(OC)cc1OCCN(C)C` [Compound Z-118], the IC50 with NIH3T3 cells (cytotoxicity, MTT, 72 h) is 3320 nM; at EGFR WT kinase, 6 nM.
On to `C=CC(=O)Nc1cc(Nc2ncc(Cl)c(-c3cnn(C4CCNCC4)c3)n2)c(OC)cc1N1CCC(N(C)C)CC1` [Compound Z-96, N-(5-(5-chloro-4-(1-(piperidin-4-yl)-1H-pyrazol-4-yl)pyrimidin-2-ylamino)-2-(4-(dimethylamino)piperidin-1-yl)-4-methoxyphenyl)acrylamide], for which the “Selective inhibitory activities” value in the assay with H1975 cells [1] is listed as 10.3. The IC50 is 94 nM in the assay with H1975 cells [1] (Homo sapiens, NCI-H1975); 41 nM on EGFR WT kinase; 969 nM with A431 cells (Homo sapiens, A-431).
Regarding `C=CC(=O)Nc1cc(Nc2ncc(F)c(-c3cnc4c(c3)c(Cl)cn4C)n2)c(OC)cc1N1CCC(N(C)C)CC1` [Compound Z-122], the IC50 against EGFR WT kinase is 25 nM.
The molecule `C=CC(=O)Nc1cc(Nc2nccc(-c3cnc4c(cnn4C)c3)n2)c(OC)cc1N1CCC(N(C)C)CC1` [Compound Z-4, N-(2-(4-(dimethylamino)piperidin-1-yl)-4-methoxy-5-(4-(1-methyl-1H-pyrazolo[3,4-b]pyridin-5-yl)pyrimidin-2-ylamino)phenyl)acrylamide] displayed an IC50 on EGFR WT kinase of 45 nM.
`C=CC(=O)Nc1cc(Nc2nccc(-c3cnc4c(c3)c(Cl)cn4C)n2)c(OC)cc1N(C)CCN(C)C` [Compound Z-54]: the IC50 in the assay on H1975 cells [2] (MTT, 72 h) was determined as 3 nM; in the assay with H1975 cells [1] it was 4 nM.
In the case of `C=CC(=O)Nc1cc(Nc2ncc(Cl)c(-c3cnn(C)c3C)n2)c(OC)cc1N1CCC(N(C)C)CC1` [Compound Z-97, N-(5-(5-chloro-4-(1,5-dimethyl-1H-pyrazol-4-yl)pyrimidin-2-ylamino)-2-(4-(dimethylamino)piperidin-1-yl)-4-methoxyphenyl)acrylamide], the “Selective inhibitory activities” value in the assay with H1975 cells [1] was 72.1. Moreover, the IC50 worked out at 104 nM with H1975 cells [1] (Homo sapiens, NCI-H1975); 341 nM against EGFR WT kinase; 7500 nM in the assay on A431 cells (Homo sapiens, A-431).
As to `C=CC(=O)Nc1cc(Nc2ncc(Cl)c(-c3cnc4c(ccn4C)c3)n2)c(OC)cc1N(C)CCN(CC)CC` [Compound Z-110], the IC50 in the assay on NIH3T3 cells (cytotoxicity, MTT, 72 h) stood at 6840 nM.
Consider `C=CC(=O)Nc1cc(Nc2ncc(Cl)c(-c3cnc4c(ccn4C)c3)n2)c(OC)cc1N(C)CCNC` [Compound Z-116], for which the IC50 with NIH3T3 cells (cytotoxicity, MTT, 72 h) was more than 10000 nM; against EGFR WT kinase it was 37 nM.
In the case of `CN(C)C/C=C/C(=O)Nc1cc2c(Nc3ccc(F)c(Cl)c3)ncnc2cc1O[C@H]1CCOC1` [BIBW2992, Afatinib, reference compound], the IC50 in the assay on H1975 cells [2] (Homo sapiens, NCI-H1975, 72 h) was 88 nM; with NIH3T3 cells (Mus musculus, NIH3T3, 72 h), 2750 nM.
Consider `C=CC(=O)Nc1cc(Nc2nccc(-c3ccc4c(ccn4C)c3)n2)c(OC)cc1N(C)CCN(C)C` [Compound Z-87], for which the IC50 in the assay on H1975 cells [1] came out at 31 nM; against EGFR WT kinase it was 8 nM; in the assay with A431 cells, 210 nM. Further, the “Selective inhibitory activities” value in the assay with H1975 cells [1] is recorded as 6.8.
With `C=CC(=O)Nc1cc(Nc2nccc(-c3cnn(C)c3)n2)c(OC)cc1N(C)CCN(C)C` [Compound Z-18, N-(2-((2-(dimethylamino)ethyl)(methyl)amino)-4-methoxy-5-((4-(1-methyl-1H-pyrazol-4-yl)pyrimidin-2-yl)amino)phenyl)acrylamide], the IC50 at EGFR WT kinase is 197 nM.
Consider `C=CC(=O)Nc1cc(Nc2nccc(-c3cnc4[nH]ccc4c3)n2)c(OC)cc1N1CC(N(C)C)C1` [Compound Z-33], for which, in the assay with NIH3T3 cells (cytotoxicity, MTT, 72 h), the IC50 is more than 10000 nM.
For the molecule `C=CC(=O)Nc1cc(Nc2ncc(F)c(-c3cnc4c(cnn4C)c3)n2)c(OC)cc1N1CCC(N(C)C)CC1` [Compound Z-37], the results for the IC50 with H1975 cells [1], on EGFR WT kinase and in the assay on A431 cells were 57 nM, 89 nM and 481 nM, respectively. For the same molecule, in the assay with H1975 cells [1], the “Selective inhibitory activities” value was 8.4.
With `C=CC(=O)Nc1cc(Nc2nccc(-c3cnc4c(ccn4C)c3)n2)c(OC)cc1N1CCN(C)CC1` [Compound Z-26], the IC50 in the assay on NIH3T3 cells (cytotoxicity, MTT, 72 h) is more than 10000 nM; at EGFR WT kinase it was 114 nM.
Regarding `C=CC(=O)Nc1cc(Nc2ncc(Cl)c(-c3cnc4c(ccn4C)c3)n2)c(OC)cc1N(C)CCCN(C)C` [Compound Z-111], in the assay with NIH3T3 cells (cytotoxicity, MTT, 72 h), the IC50 is 4010 nM.
For the molecule `C=CC(=O)Nc1cc(Nc2ncc(F)c(-c3cnc4c(ccn4C)c3)n2)c(OC)cc1N1CCC(N(C)C)CC1` [Compound Z-29], the IC50 on EGFR WT kinase was found to be 118 nM.
Turning to `C=CC(=O)Nc1cc(Nc2ncc(Cl)c(-c3cnn(C(F)F)c3)n2)c(OC)cc1N1CCC(N(C)C)CC1` [Compound Z-101, N-(5-(5-chloro-4-(1-(difluoromethyl)-1H-pyrazol-4-yl)pyrimidin-2-ylamino)-2-(4-(dimethylamino)piperidin-1-yl)-4-methoxyphenyl)acrylamide], the IC50 with H1975 cells [2] (Homo sapiens, NCI-H1975, MTT, 72 h) was 43 nM; with NIH3T3 cells (setting [3]), 3430 nM.
As for `C=CC(=O)Nc1cc(Nc2nccc(-c3cnc4c(ccn4C)c3)n2)c(OC)cc1N1CCC(N(C)C)CC1` [Compound Z-25], the IC50 stood at 6910 nM in the assay with NIH3T3 cells (cytotoxicity, MTT, 72 h) and 61 nM on EGFR WT kinase.
